The record followed here is patent publication US11076597B2, “High stress resistant plant growth regulator and preparation method and use thereof” (SHANGHAI INSTITUTES FOR BIOLOGICAL SCIENCES, CHINESE …, priority 2015, dated 2021).

Assay [1] deals with T1, rice OsPYL2 + Arabidopsis AtHAB1 (Oryza sativa subsp. japonica, UniProt Q5Z8S0).
T1 construct: made in house; host or cells: E. coli BL21 (DE3)
T1 sequence (Q5Z8S0 1-207): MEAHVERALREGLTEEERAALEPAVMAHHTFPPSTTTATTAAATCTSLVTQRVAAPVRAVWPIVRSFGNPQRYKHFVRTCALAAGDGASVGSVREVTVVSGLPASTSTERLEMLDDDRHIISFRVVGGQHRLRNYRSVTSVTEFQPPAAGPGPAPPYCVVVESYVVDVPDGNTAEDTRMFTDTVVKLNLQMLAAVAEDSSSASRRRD
T1 sequence (Q9CAJ0 172-511 partner limits assumed): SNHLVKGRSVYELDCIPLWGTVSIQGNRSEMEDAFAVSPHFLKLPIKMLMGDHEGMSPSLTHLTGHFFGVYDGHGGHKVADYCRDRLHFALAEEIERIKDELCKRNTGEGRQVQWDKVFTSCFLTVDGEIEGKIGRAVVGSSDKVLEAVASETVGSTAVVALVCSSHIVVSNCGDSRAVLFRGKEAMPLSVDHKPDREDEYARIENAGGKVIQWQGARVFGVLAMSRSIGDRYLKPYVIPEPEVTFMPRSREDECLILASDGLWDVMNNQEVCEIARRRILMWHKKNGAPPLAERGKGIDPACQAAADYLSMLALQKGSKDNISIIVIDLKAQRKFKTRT
The assay is described as follows: AlphaScreen assay: promotion of the interaction of rice OsPYL2 with Arabidopsis HAB1. Format: binding, rice (OsPYL2); Arabidopsis thaliana (HAB1). As to conditions: FIG. 13b; 6×His-SUMO-tagged rice OsPYL2, Biotin-tagged Arabidopsis HAB1 (aa 172-511), 100 nM each; pH 7.4; 1.5 h room temperature. The source says:
Compound 0428 can promote the interaction of the Arabidopsis protein phosphatase HAB1 with soybean GmPYL6 or rice OsPYL2, and this interaction is dose-dependent.
The construction method of recombinant plasmids for the Arabidopsis thaliana genes PYL1 (amino acid sequence 36-211), PYL2 (amino acid sequence 14-188) with dual tags of 6×His and SUMO sequence and the Arabidopsis thaliana gene HAB1 (amino acid sequence 172-511) with the Biotin tag sequence is described in detail in “A gate-latch-lock mechanism for hormone signaling by abscisic acid receptors” (Nature, Vol 462, 2009). The construction method of recombinant plasmids for PYR1 and PYL7 (whole gene coding sequence) and Soybean GmPYL6 and rice OsPYL2 with dual tags of 6×His and SUMO sequence is the same as that for Arabidopsis PYL2.
The above recombinant plasmid is transformed into competent cell of E. coli BL21 (DE3) (purchased from NEB company), and inoculated into 200 ml of LB liquid medium containing Amp resistance (purchased from OXOID company) and cultured overnight at 37° C. at 200 rpm; and inoculated into 2 L of LB liquid medium containing Amp resistance at a ratio of 1:50-1:100 for an extended culture, and cultured at 37° C., 200 rpm for 3-4 hours, and at a low temperature of 16° C. until OD600 is about 0.8-1.0. […]
(In general: Alpha assays give light when donor and acceptor beads are brought close together.)

The next assay deals with soybean GmPYL6 protein. Nature of the assay: AlphaScreen assay, soybean GmPYL6 with Arabidopsis AtHAB1. As to conditions: fraction of the EC50 of ABA; FIG. 13. Format: biochemical. The protocol:
(§1) The AlphaScreen kit (available from Perkin Elmer) was used, and the method was as follows: a 10× buffer (50 mM MOPS, pH 7.4, 50 mM NaF, 50 mM CHAPS, 0.1 mg/ml bovine serum albumin) diluted at 1:10, each of 100 nM HAB1 with Biotin tag sequence and PYR1/PYL1/PYL2/PYL7/GmPYL6/OsPYL2 protein with dual tags of 6×His and SUMO sequences, corresponding concentrations of (+)-ABA/0224/0304/0706/0708/0713/0715/0428/NC0F4, and 5 μg/ml donor beads and acceptor beads (available from Perkin Elmer) were contained in 150 μl of experimental system. After incubating for 1.5 hours at room temperature in the dark, it was placed into an Envision Plate Reader (available from Perkin Elmer) under the programmed AlphaScreen procedure for readings.

For another assay, the target named is T2, rice OsPYL2 protein (Oryza sativa subsp. japonica, UniProt Q5Z8S0).
T2 construct: made in house; host or cells: E. coli BL21 (DE3)
T2 sequence (Q5Z8S0 1-207): T1 sequence (Q5Z8S0 1-207)
T2 sequence (Q9CAJ0 172-511 partner limits assumed): T1 sequence (Q9CAJ0 172-511 partner limits assumed)
The assay is described as follows: AlphaScreen assay, rice OsPYL2 with Arabidopsis AtHAB1. The format is biochemical. As to conditions: fraction of the EC50 of ABA; FIG. 13. As for the experimental part: as §1

Usually EC50 stands for the concentration needed to bring the measured effect to its halfway point. Consider `CC1=CC(=O)CC(C)(C)[C@@]1(O)/C=C/C(C)=C\C(=O)O` [ABA, Abscisic Acid, reference compound], for which the EC50 in assay [1] amounted to 149 nM. With `CCCN1C(=O)OCc2cc(NS(=O)(=O)Cc3c(F)c(F)c(C)c(F)c3F)ccc21` [Compound 0428], the “EC50 value for soybean GmPYL6 as fraction of that of ABA” value in the assay with soybean GmPYL6 protein is “about 1/14”. Further, the “EC50 value for rice OsPYL2 as fraction of that of ABA” value at rice OsPYL2 protein is listed as “⅓”.
